Measurements taken from article PMC10891803, “Seleno-Warfare against Cancer: Decoding Antitumor Activity of Novel Acylselenoureas and Se-Acylisoselenoureas” (Pharmaceutics, 2024).
Like-named read-outs stand apart in the source and are kept apart here.

Experiments:
[1] = tested on: MDA-MB-231 cells; settings: cited from earlier work
[2] = tested on: DU-145; experiment: MTT cell viability assay, DU-145; format: cell-based, human; settings: 48 h
Procedure: (§1) The cell lines were purchased from the American Type Culture Collection (ATCC). The four tumor cell lines used were as follows: MDA-MB-231 (triple-negative breast cancer), HTB-54 (lung cancer), DU-145 (prostate cancer), and HCT-116 (colon cancer), and the non-tumoral cell line 185-B5 (mammary tissue) were grown in Roswell Park Memorial Institute (RPMI) 1640 medium culture (Thermo Scientific, USA), supplemented with 10% fetal bovine serum (FBS) (Thermo Scientific, USA) and 1% of antibiotics (10,000 units/mL penicillin and 10 mg/mL streptomycin (Thermo Scientific, USA)). Cells were preserved in tissue culture flasks at 37 °C and 5% CO2. The culture medium was replaced every two to three days.
(§2) Cell viability was determined using the MTT colorimetric assay. A total of 10,000 cells were seeded in each well in a 96-well plate for 24 h. Then, cells were incubated with the corresponding concentration of each tested compound and with DMSO (1%) as control for 48 h. Each compound was dissolved in DMSO at a stock concentration of 0.01 M. Firstly, each compound was tested at 2 concentrations (10 µM and 50 µM) in four human tumoral cell lines MDA-MB-231, HTB-54, DU-145, and HCT-116. Serial dilutions from stock concentration with culture medium were prepared. […] The cell viability was determined by the addition of 20 µL of MTT and its incubation for 2.5 h. Later, the culture medium was removed, and 50 µL of DMSO was added to dissolve formazan crystals. The absorbance was measured at 550 nm. Inhibitory concentration 50 (IC50) and selectivity index (SI) were calculated. Three different experiments were performed independently.
(§3) Cell viability results are expressed as the mean ± standard deviation (SD), and experiments were independently performed thrice in triplicates. IC50 values were determined using a non-linear curve regression analysis calculated by OriginPro 9.0 software.

[3] = tested on: HTB-54; experiment: MTT cell viability assay, HTB-54; format: cell-based, human; settings: 48 h
Procedure: as §1, §2, §3

[4] = tested on: MDA-MB-231; experiment: MTT cell viability assay, MDA-MB-231; format: cell-based, human
Procedure: as §1, §2, §3

[5] = tested on: 184-B5; experiment: MTT cell viability assay, non-malignant 184-B5; format: cell-based; settings: Homo sapiens, 48 h, mean ± SD of three experiments, read-out: IC50 184-B5 (Breast, non-tumoral)
Procedure: as §1, §2, §3

[6] = tested on: HCT-116; experiment: MTT cell viability assay, HCT-116; format: cell-based, human; settings: 10 µM, 48 h, MTT screening (Figure S1)
Procedure: as §1, §2, §3

[7] = tested on: MDA-MB-231, HTB-54, and DU-145; experiment: MTT dose-response in the three tumoral cell lines; format: cell-based, human; settings: 48 h, read-out: IC50 toward the tumoral cell lines
Procedure: as §2, §3

[8] = tested on: MDA-MB-231, HTB-54, DU-145, and HCT-116; experiment: MTT initial screening in four tumor cell lines; format: cell-based; settings: Homo sapiens, in at least three cell lines, 48 h, read-out: cell growth inhibition
Procedure: as §2

[9] = tested on: panel of 60 cancer cell lines; experiment: NCI60 One-Dose screening; format: cell-based; settings: 1·10^−5 M, 48 h, mean of 60 cancer cell lines
Procedure: (§4) The ten compounds with the highest cell growth inhibition activity were submitted to the Developmental Therapeutics Program (DTP) of the National Cancer Institute (NCI). The assay consists of the evaluation of the cytotoxicity by a One-Dose screening at 10^−5 M against a panel of 60 cancer cell lines of different tumors (leukemia, lung, central nervous system (CNS), melanoma, ovarian, renal, prostate, and breast cancer cell lines). […] A range of 5000–40,000 cells/well were seeded and cultured in RPMI 1640 containing 5% of FBS and 2 mM L-glutamine and were inoculated into 96-well microtiter plates in 100 µL. The microtiter plates are incubated at 37 °C and 5% humidified CO2 for 24 h prior to the addition of experimental drugs. After that, an experimental drug was added, and the microtiter was incubated for 48 h.

[10] = tested on: panel of 60 cancer cell lines; experiment: NCI60 Five-Dose assay; format: cell-based; settings: Five-Dose assay 0.01–100 µM, 48 h, 60 cell line panel
Procedure: as §4

[11] = tested on: DU-145 cells; experiment: Muse Annexin V/7-AAD apoptosis assay; format: cell-based, human; settings: DU-145, 2.5 μM, 48 h
Procedure: (§5) The apoptosis assays were conducted using the Muse Caspase-3/7 assay kit and the Annexin V/7-AAD kit (EMD Millipore, Darmstadt, Germany) following the manufacturer’s instructions. Initially, DU-145 cells were seeded in 6-well plates at a density of 1 × 10^5 cells per well. After 24 h of incubation, the cells received treatment with 2.5 µM and 5 µM of compound 4. Subsequently, the cells were incubated for 48 h. Upon completion of the treatment period, the cells were harvested using enzyme-free Cell Dissociation Buffer. The samples were then subjected to the appropriate dyes according to the manufacturer’s instructions and analyzed using the Muse Cell Analyzer (Merck Millipore, Darmstadt, Germany).
Apoptosis was assessed using the Muse Annexin V & Dead Cell assay kit following the manufacturer’s guidelines.

[12] = tested on: DU-145 cells; experiment: Muse Caspase-3/7 assay; format: cell-based, human; settings: DU-145, 2.5 and 5 µM, 48 h
Procedure: as §5

[13] = tested on: apoptotic proteins in DU-145 cells; experiment: Western blot of apoptotic proteins; format: cell-based, human; settings: DU-145, 5 µM, 24 h
Procedure: Western blot analysis was conducted to evaluate changes in protein expression levels before and after treatment. In brief, DU-145 cells were treated with 5 µM of compound 4, and upon completing the designated treatment duration, cell lysis was achieved using RIPA buffer (Thermo Scientific, USA), supplemented with a protease inhibitor cocktail (Thermo Scientific, USA). Subsequently, the resulting lysates were chilled on ice for 30 min and then centrifuged at 10,000 rpm for 15 min to remove cellular debris. Total protein concentration was determined using the BCA assay (Thermo Scientific, USA). Equivalent quantities of cell lysates were separated using NuPAGE 4–12% gels (Life Technologies, Carlsbad, CA, USA), followed by electro-transfer onto a PVDF membrane. Various antibodies were employed to investigate protein expression levels, with detection accomplished using the Enhanced Chemiluminescent reagent (Life Technologies, USA). All antibodies utilized in this study were procured from Cell Signaling Technologies (Danvers, MA, USA).

[14] = tested on: DU-145; parameters: method as in PMID 11306488; settings: cited from earlier work
[15] = 10 µM, MTT screening (Figure S1)

O=[Se]=O [SeO2]
cell viability ([1]; MDA-MB-231): at least 50%

CC(=O)Oc1ccccc1C(=O)[Se]C(=NC(C)C)NC(C)C [Compound 4]
percentage of cell growth, DU-145 [2, 15]: -82.47%
IC50 ([2]; Homo sapiens, DU-145, MTT, mean ± SD of three experiments, read-out: IC50 DU-145 (Prostate)): 5.06 ± 0.02 µM
percentage of cell growth, HTB-54 [3, 15]: -34.81%
IC50 ([3]; Homo sapiens, HTB-54, MTT, mean ± SD of three experiments, read-out: IC50 HTB-54 (Lung)): 7.2 ± 1.81 µM
percentage of cell growth, MDA-MB-231 ([4]; 10 µM, 48 h, MTT screening (Figure S1)): -41.78%
IC50 ([4]; Homo sapiens, MDA-MB-231, MTT, 48 h, mean ± SD of three experiments, read-out: IC50 MDA-MB-231 (Breast)): 5.48 ± 0.42 µM
Selectivity index (SI) ([4]; IC50 184-B5/IC50 MDA-MB-231): 1.75
IC50 [5]: 9.6 ± 0.97 µM
percentage of cell growth, HCT-116 [6]: 36.77%
IC50 [7]: < 7.5 µM
IC50 ([7]; Homo sapiens): < 10 µM
inhibition at 10 µM [8]: > 50%
mean value of cell growth, One-Dose assay [9]: −67.93%
GI50 [10]: < 2 µM
cells exhibiting signs of apoptosis [11]: over 25%
caspase 3/7 activity [12]: dose-dependent increase
Bax expression [13]: upregulation
Bcl-2 expression [13]: Downregulation
caspase-3 cleavage and activation [13]: increased the cleavage and activation
expression of pro-caspase-9 [13]: reduction

[Se] [elemental Se]
effect on cell growth ([1]; MDA-MB-231 cells incubated alone with Se): no effect on cell growth
type of cell death [14]: apoptotic cell death
